# From patent publication US20160257697A1, “THIOPHENE-SUBSTITUTED TETRACYCLIC COMPOUNDS AND METHODS OFUSE THEREOF FOR THE TREATMENT OF VIRAL DISEASES” (priority 2013, published 2016)
# Read-outs that look alike come from different tables or passages of the source.
# What was measured:
# Assay in all cases: microbe, parasite or virus in culture
# Format in all cases: cell-based, Hepatitis C virus (HCV)
# [1] = tested on: HCV replicon 1AQ30D; settings: Replicon Assay B
# [2] = tested on: HCV replicon 1B; settings: Replicon Assay B
# [3] = tested on: HCV replicon 2B; settings: Replicon Assay A
# How it was run: (§1)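 Cells seeded 2000/well + compound; 0.5% DMSO, 5% FBS; harvest day 3, lyse. Multiplex TaqMan RT-PCR for replicon (Neo probe) and cyclophilin RNA; amounts from Ct vs log(ng) linear regression of replicon total RNA standards.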
# [4] = tested on: HCV replicon 1A; settings: Replicon Assay A
# How it was run: as §1
# [5] = tested on: HCV replicon 1AY93H; settings: Replicon Assay A
# How it was run: as §1
# [6] = read-out: 1A Q30D IC50, replicon 1AQ30D
# [7] = read-out: 1A Y93H IC50, replicon 1AY93H
# [8] = Hepatitis C virus, read-out: 1A Q30D IC50, HCV replicon 1A Q30D
# [9] = Hepatitis C virus, HCV replicon 1B
# [10] = Hepatitis C virus, read-out: 2B IC50, HCV replicon 2B
# [11] = Hepatitis C virus, HCV replicon 1A
# [12] = Hepatitis C virus, read-out: 1A Y93H IC50, HCV replicon 1A Y93H
# [13] = read-out: 2B IC50, HCV replicon 2B
# [14] = read-out: 1A Y93H IC50, HCV replicon 1A Y93H
# [15] = Hepatitis C virus, read-out: 1A Q30D IC50 (nM), replicon 1AQ30D
# [16] = Hepatitis C virus, read-out: 2B IC50 (nM), replicon 2B
# [17] = Hepatitis C virus, read-out: 1A Y93H IC50 (nM), replicon 1AY93H
SMILES,"IC50 [1, 6]","IC50 ([3]; read-out: 2B IC50, replicon 2B)",IC50 ([4]; replicon 1A),"IC50 [5, 7]","IC50 [1, 15]","IC50 ([2]; Hepatitis C virus, replicon 1B)","IC50 ([4]; Hepatitis C virus, replicon 1A)",other results
COC(=O)N[C@H](C(=O)N1CCC[C@H]1c1nc(-c2cc(F)c3c(c2)OC(c2ccc(C)s2)n2c-3cc3cc(-c4cnc([C@@H]5CCCN5C(=O)[C@@H](NC(=O)OC)C5CCOCC5)[nH]4)ccc32)c[nH]1)C(C)C (stereo partly drawn) [Compound 59],0.018 nM,0.007 nM,1.3 pM,0.004 nM,–,–,–,IC50 ([2]; replicon 1B): 3.5 pM
COC(=O)N[C@H](C(=O)N1CCC[C@H]1c1ncc(-c2cc(F)c3c(c2)OC(c2ccc(C4CC4)s2)n2c-3cc3cc(-c4cnc([C@@H]5CCCN5C(=O)[C@@H](NC(=O)OC)C5CC6(COC6)C5)[nH]4)ccc32)[nH]1)C(C)C (mixture of isomers) [Compound 531],–,–,–,–,–,–,–,"IC50 [1, 8]: 3.98 nM; IC50 [2, 9]: 1300 pM; IC50 [3, 10]: 4.32 nM; IC50 [4, 11]: 9.09 pM; IC50 [5, 12]: 0.912 nM"
"COC(=O)N[C@H](C(=O)N1CCC[C@H]1c1ncc(-c2ccc3c(c2)OC(c2ccc(C4CC4)s2)n2c-3c(F)c3cc(-c4cnc([C@@H]5CCCN5C(=O)[C@@H](NC(=O)OC)C(C)C)[nH]4)ccc32)[nH]1)C(C)C (single isomer, unassigned) [Compound 604]",–,–,–,–,–,–,–,"IC50 [1, 8]: 0.704 nM; IC50 ([2]; HCV replicon 1B): 1.1 pM; IC50 [3, 13]: 0.0624 nM; IC50 [4, 11]: 1.3 pM; IC50 [5, 14]: 0.0318 nM"
"COC(=O)NC(C(=O)N1CCC[C@H]1c1ncc(-c2cc(F)c3c(c2)OC(c2ccc(C4CC4)s2)n2c-3cc3cc(-c4cnc([C@@H]5CCCN5C(=O)[C@@H](NC(=O)OC)C(C)C)[nH]4)ccc32)[nH]1)C1C[C@@H](C)O[C@@H](C)C1 (single isomer, unassigned) [Compound 186]",–,–,1.9 pM,0.53 nM,2.84 nM,2.1 pM,–,"IC50 [3, 16]: 0.63 nM"
COC(=O)NC(C(=O)N1CCC[C@H]1c1ncc(-c2ccc3c(c2)cc2n3C(c3ccc(CC(C)(C)OC)s3)Oc3cc(-c4cnc([C@@H]5CCCN5C(=O)[C@@H](NC(=O)OC)C(C)C)[nH]4)cc(F)c3-2)[nH]1)C1CCOC(C)(C)C1 (stereo partly drawn) [Compound 848],–,–,–,–,–,–,–,"IC50 [1, 8]: 0.085 nM; IC50 [2, 9]: 4.5 pM; IC50 [3, 10]: 0.026 nM; IC50 [4, 11]: 2.9 pM; IC50 [5, 12]: 0.01 nM"
"COC(=O)NC(C(=O)N1CCC[C@H]1c1ncc(-c2cc(F)c3c(c2)OC(c2ccc(C4CCC4)s2)n2c-3cc3cc(-c4cnc([C@@H]5CCCN5C(=O)[C@@H](NC(=O)OC)C5CCOCC5)[nH]4)ccc32)[nH]1)C(C)(C)F (single isomer, unassigned) [Compound 251]",0.4 nM,0.1 nM,1.2 pM,0.06 nM,–,–,–,IC50 ([2]; replicon 1B): 2.5 pM
CCc1ccc(C2Oc3cc(-c4cnc([C@@H]5CCCN5C(=O)[C@@H](NC(=O)OC)C(C)C)[nH]4)cc(F)c3-c3cc4cc(-c5cnc([C@@H]6CCCN6C(=O)[C@H](NC(=O)OC)C6CCOC(C)(C)C6)[nH]5)ccc4n32)s1 (stereo partly drawn) [Compound 151],–,–,–,–,0.022 nM,2.4 pM,2 pM,"IC50 [3, 16]: 0.004 nM; IC50 [5, 17]: 0.003 nM"
COC(=O)NC(C(=O)N1CCC[C@H]1c1ncc(-c2ccc3c(c2)cc2n3C(c3ccc(C4CC4)s3)Oc3cc(-c4cnc([C@@H]5CCCN5C(=O)[C@@H](NC(=O)OC)C(C)C)[nH]4)cc(F)c3-2)[nH]1)C1CCOC(C)(C)C1 (stereo partly drawn) [Compound 218],–,–,–,–,0.055 nM,3.1 pM,2.6 pM,"IC50 [3, 16]: 0.004 nM; IC50 [5, 17]: 0.004 nM"
"COC(=O)N[C@H](C(=O)N1CCC[C@H]1c1ncc(-c2cc(F)c3c(c2)OC(c2ccc(C4CC4)s2)n2c-3cc3cc(-c4cnc([C@@H]5CCCN5C(=O)[C@@H](NC(=O)OC)C5CCOCC5)[nH]4)ccc32)[nH]1)C1CCOCC1 (single isomer, unassigned) [Compound 280]",0.005 nM,0.003 nM,2.1 pM,0.003 nM,–,–,–,IC50 ([2]; replicon 1B): 2.6 pM
"COC(=O)NC(C(=O)N1CCC[C@H]1c1ncc(-c2ccc3c(c2)cc2n3C(c3ccc(C4CC4)s3)Oc3cc(-c4cnc([C@@H]5CCCN5C(=O)[C@@H](NC(=O)OC)C5CCOCC5)[nH]4)cc(F)c3-2)[nH]1)C(C)(C)F (single isomer, unassigned) [Compound 172]",0.018 nM,0.005 nM,1.5 pM,0.004 nM,–,1.8 pM,–,–
COC(=O)NC(C(=O)N1CCC[C@H]1c1ncc(-c2ccc3c(c2)cc2n3C(c3ccc(C4CC4)s3)Oc3cc(-c4cnc([C@@H]5CCCN5C(=O)[C@@H](NC(=O)OC)C(C)C)[nH]4)cc(F)c3-2)[nH]1)C1C[C@@H](C)O[C@@H](C)C1 (stereo partly drawn) [Compound 208],–,–,–,–,0.043 nM,3.2 pM,3.1 pM,"IC50 [3, 16]: 0.005 nM; IC50 [5, 17]: 0.008 nM"
"CCCc1ccc(C2Oc3cc(-c4cnc([C@@H]5CCCN5C(=O)[C@@H](NC(=O)OC)C(C)C)[nH]4)cc(F)c3-c3cc4cc(-c5cnc([C@@H]6CCCN6C(=O)[C@@H](NC(=O)OC)C6CCOCC6)[nH]5)ccc4n32)s1 (single isomer, unassigned) [Compound 346]",0.223 nM,0.0374 nM,–,0.0414 nM,–,1.3 pM,1 pM,–
"COC(=O)N[C@H](C(=O)N1CCC[C@H]1c1ncc(-c2cc(F)c3c(c2)OC(c2cc4c(s2)CCC(C)(C)O4)n2c-3cc3cc(-c4cnc([C@@H]5CCCN5C(=O)[C@@H](NC(=O)OC)C(C)C)[nH]4)ccc32)[nH]1)C(C)C (single isomer, unassigned) [Compound 397]",–,0.0164 nM,–,0.004 nM,0.0765 nM,3 pM,3 pM,–
"CCCc1ccc(C2Oc3cc(-c4cnc([C@@H]5CCCN5C(=O)[C@@H](NC(=O)OC)C(C)C)[nH]4)cc(F)c3-c3cc4cc(-c5cnc([C@@H]6CCCN6C(=O)C(NC(=O)OC)C6C[C@@H](C)O[C@@H](C)C6)[nH]5)ccc4n32)s1 (single isomer, unassigned) [Compound 369]",0.912 nM,0.115 nM,–,0.0739 nM,–,1.8 pM,1 pM,–
"CCc1ccc(C2Oc3cc(-c4cnc([C@@H]5CCCN5C(=O)C(NC(=O)OC)C5C[C@@H](C)O[C@@H](C)C5)[nH]4)cc(F)c3-c3cc4cc(-c5cnc([C@@H]6CCCN6C(=O)[C@@H](NC(=O)OC)C(C)C)[nH]5)ccc4n32)s1 (single isomer, unassigned) [Compound 156]",–,0.005 nM,2 pM,0.005 nM,0.019 nM,1.8 pM,–,–
"COC(=O)NC(C(=O)N1CCC[C@H]1c1ncc(-c2ccc3c(c2)cc2n3C(c3ccc(C4CC4)s3)Oc3cc(-c4cnc([C@@H]5CCCN5C(=O)[C@@H](NC(=O)OC)C(C)C)[nH]4)cc(F)c3-2)[nH]1)C(C)(C)F (single isomer, unassigned) [Compound 75]",–,0.041 nM,3 pM,0.021 nM,0.27 nM,3.1 pM,–,–
"COC(=O)N[C@H](C(=O)N1CCC[C@H]1c1ncc(-c2cc(F)c3c(c2)OC(c2ccc(CC4CC4)s2)n2c-3cc3cc(-c4cnc([C@@H]5CCCN5C(=O)[C@@H](NC(=O)OC)C5CCOCC5)[nH]4)ccc32)[nH]1)C(C)C (single isomer, unassigned) [Compound 356]",0.152 nM,0.0175 nM,–,0.0214 nM,–,2.5 pM,2.5 pM,–
"COC(=O)NC(C(=O)N1CCC[C@H]1c1ncc(-c2ccc3c(c2)cc2n3C(c3ccc(CC4CC4)s3)Oc3cc(-c4cnc([C@@H]5CCCN5C(=O)[C@@H](NC(=O)OC)C(C)C)[nH]4)cc(F)c3-2)[nH]1)C1C[C@@H](C)O[C@@H](C)C1 (single isomer, unassigned) [Compound 375]",–,–,–,–,0.315 nM,2.6 pM,1.5 pM,"IC50 [3, 16]: 0.024 nM; IC50 [5, 17]: 0.0269 nM"
CCc1ccc(C2Oc3cc(-c4cnc([C@@H]5CCCN5C(=O)[C@@H](NC(=O)OC)C(C)C)[nH]4)cc(F)c3-c3cc4cc(-c5cnc([C@@H]6CCCN6C(=O)[C@@H](NC(=O)OC)C(C)C)[nH]5)ccc4n32)s1 (stereo partly drawn) [Compound 4],–,–,–,–,0.347 nM,2 pM,2.2 pM,"IC50 [3, 16]: 0.055 nM; IC50 [5, 17]: 0.01 nM"
"COC(=O)NC(C(=O)N1CCC[C@H]1c1ncc(-c2ccc3c(c2)cc2n3C(c3cc4ccccc4s3)Oc3cc(-c4cnc([C@@H]5CCCN5C(=O)[C@@H](NC(=O)OC)C(C)C)[nH]4)cc(F)c3-2)[nH]1)C1C[C@@H](C)O[C@@H](C)C1 (single isomer, unassigned) [Compound 640]",–,–,–,–,–,–,–,"IC50 [1, 8]: 0.271 nM; IC50 [2, 9]: 1.1 pM; IC50 [3, 13]: 0.0253 nM; IC50 [4, 11]: 1.9 pM; IC50 [5, 14]: 0.0106 nM"
COC(=O)N[C@H](C(=O)N1CCC[C@@H]1c1ncc(-c2cc(F)c3c(c2)OC(c2ccc(C(C)C)s2)n2c-3cc3cc(-c4c[nH]c([C@@H]5CCCN5C(=O)[C@H](NC(=O)OC)C5C[C@@H](C)O[C@@H](C)C5)n4)ccc32)[nH]1)C(C)C (stereo partly drawn) [Compound 240],0.062 nM,0.011 nM,2.1 pM,0.005 nM,–,–,–,IC50 ([2]; replicon 1B): 2.7 pM
